Experimental data from ChEMBL document CHEMBL1201862, “PubChem BioAssay data set” (2004).
Activity calls are given as the source filed them.

What was measured:
[1] = target: Peroxisome proliferator-activated receptor gamma/Nuclear receptor coactivator 2 (Homo sapiens, UniProt P37231); format: functional;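 further: agonist potency for raising coactivator recruitment to the receptor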
[2] = target: Peroxisome proliferator-activated receptor gamma/Nuclear receptor coactivator 1 (Homo sapiens, UniProt P37231); format: functional;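 further: agonist potency as compounds enhance coactivator SRC-1 recruitment to PPARgamma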
Chain of Peroxisome proliferator-activated receptor gamma/Nuclear receptor coactivator 1 (P37231 whole entry): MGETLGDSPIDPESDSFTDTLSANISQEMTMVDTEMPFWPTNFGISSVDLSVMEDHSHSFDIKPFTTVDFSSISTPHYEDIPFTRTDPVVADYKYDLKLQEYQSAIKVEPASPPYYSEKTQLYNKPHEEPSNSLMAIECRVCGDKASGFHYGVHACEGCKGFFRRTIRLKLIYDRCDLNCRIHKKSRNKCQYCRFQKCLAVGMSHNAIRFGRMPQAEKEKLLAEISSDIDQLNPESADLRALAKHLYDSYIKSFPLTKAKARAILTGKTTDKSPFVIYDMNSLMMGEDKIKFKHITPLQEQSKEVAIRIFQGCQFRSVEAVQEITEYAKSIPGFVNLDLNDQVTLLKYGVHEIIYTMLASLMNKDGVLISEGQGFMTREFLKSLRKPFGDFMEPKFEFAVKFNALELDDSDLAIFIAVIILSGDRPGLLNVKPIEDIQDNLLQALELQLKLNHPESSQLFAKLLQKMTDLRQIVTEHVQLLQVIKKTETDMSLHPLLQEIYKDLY
Chain of Peroxisome proliferator-activated receptor gamma/Nuclear receptor coactivator 1 (Q15788 whole entry, further chain): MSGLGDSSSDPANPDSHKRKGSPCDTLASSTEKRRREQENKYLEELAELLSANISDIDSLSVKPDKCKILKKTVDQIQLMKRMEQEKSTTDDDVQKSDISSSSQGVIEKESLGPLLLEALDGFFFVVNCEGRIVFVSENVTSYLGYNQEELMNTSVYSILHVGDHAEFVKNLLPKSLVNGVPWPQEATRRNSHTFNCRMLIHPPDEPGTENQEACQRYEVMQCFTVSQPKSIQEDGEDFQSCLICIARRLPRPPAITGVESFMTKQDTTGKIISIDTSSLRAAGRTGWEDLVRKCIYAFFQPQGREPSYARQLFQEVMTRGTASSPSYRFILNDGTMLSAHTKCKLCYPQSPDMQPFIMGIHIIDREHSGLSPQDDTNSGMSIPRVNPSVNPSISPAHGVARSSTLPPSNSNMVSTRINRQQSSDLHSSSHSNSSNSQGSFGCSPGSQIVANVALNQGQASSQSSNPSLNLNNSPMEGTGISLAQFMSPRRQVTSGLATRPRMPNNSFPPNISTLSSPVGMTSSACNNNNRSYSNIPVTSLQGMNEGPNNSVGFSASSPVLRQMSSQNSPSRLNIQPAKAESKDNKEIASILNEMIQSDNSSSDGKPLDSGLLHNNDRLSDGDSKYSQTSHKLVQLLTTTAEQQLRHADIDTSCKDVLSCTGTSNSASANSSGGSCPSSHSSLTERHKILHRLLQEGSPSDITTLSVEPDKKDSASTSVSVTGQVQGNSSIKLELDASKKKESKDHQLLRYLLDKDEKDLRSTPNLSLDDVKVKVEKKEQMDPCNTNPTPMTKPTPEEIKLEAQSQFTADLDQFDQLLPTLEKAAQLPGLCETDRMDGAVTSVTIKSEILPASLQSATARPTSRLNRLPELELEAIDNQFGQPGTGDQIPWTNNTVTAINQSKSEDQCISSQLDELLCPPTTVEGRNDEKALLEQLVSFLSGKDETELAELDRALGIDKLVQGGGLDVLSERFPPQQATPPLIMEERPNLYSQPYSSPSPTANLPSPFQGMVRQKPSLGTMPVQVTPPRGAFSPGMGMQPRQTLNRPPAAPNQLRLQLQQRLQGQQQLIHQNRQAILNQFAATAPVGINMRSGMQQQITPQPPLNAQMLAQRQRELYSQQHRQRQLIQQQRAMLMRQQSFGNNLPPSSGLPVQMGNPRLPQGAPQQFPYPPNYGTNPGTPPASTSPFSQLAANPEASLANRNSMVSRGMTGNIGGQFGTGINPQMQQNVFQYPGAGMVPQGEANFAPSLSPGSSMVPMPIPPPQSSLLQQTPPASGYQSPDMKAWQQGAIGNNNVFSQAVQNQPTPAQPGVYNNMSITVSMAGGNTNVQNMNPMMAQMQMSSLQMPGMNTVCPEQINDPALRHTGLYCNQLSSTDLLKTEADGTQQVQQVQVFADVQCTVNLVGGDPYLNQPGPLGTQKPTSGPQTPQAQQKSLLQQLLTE

[3] = target: Peroxisome proliferator-activated receptor gamma/Nuclear receptor coactivator 3 (Homo sapiens, UniProt P37231); format: functional;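 further: agonist potency for raising coactivator recruitment to the receptor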
Chain of Peroxisome proliferator-activated receptor gamma/Nuclear receptor coactivator 3 (P37231 whole entry): as the sequence (P37231 whole entry) above
Chain of Peroxisome proliferator-activated receptor gamma/Nuclear receptor coactivator 3 (Q9Y6Q9 whole entry, further chain): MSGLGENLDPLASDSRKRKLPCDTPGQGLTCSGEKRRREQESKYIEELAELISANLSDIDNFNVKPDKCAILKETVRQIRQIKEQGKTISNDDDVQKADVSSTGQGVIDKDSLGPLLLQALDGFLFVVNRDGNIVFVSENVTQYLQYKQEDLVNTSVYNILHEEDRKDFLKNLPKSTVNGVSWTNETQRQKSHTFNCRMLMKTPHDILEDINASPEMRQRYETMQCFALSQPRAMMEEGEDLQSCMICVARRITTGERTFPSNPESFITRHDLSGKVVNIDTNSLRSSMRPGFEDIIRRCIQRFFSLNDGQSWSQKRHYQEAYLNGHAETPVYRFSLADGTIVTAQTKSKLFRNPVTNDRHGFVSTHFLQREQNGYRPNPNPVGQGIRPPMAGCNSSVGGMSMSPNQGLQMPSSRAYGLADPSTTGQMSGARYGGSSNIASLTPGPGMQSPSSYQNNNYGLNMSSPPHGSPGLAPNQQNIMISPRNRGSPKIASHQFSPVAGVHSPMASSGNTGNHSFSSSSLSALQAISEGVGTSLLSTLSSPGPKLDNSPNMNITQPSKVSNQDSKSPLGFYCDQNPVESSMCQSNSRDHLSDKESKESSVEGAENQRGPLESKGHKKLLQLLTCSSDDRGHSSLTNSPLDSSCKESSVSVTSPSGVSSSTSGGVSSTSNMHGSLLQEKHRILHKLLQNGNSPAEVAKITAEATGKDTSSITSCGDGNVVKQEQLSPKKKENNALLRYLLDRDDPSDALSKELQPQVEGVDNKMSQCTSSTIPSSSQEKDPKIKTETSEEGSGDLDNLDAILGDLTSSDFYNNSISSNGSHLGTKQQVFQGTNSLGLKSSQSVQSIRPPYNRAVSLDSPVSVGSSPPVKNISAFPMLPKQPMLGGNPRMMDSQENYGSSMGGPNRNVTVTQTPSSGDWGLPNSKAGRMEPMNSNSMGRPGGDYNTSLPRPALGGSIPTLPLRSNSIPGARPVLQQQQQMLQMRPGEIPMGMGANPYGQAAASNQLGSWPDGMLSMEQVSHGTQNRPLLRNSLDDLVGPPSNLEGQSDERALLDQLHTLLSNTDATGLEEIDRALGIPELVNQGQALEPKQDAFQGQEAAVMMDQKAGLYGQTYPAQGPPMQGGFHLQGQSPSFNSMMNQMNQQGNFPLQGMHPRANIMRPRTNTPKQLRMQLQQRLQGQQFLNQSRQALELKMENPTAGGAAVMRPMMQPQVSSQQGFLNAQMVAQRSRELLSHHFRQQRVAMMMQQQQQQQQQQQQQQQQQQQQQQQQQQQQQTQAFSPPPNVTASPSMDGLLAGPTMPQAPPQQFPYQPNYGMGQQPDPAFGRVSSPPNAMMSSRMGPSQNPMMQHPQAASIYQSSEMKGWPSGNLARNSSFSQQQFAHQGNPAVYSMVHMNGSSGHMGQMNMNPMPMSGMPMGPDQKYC

[4] = target: Cytochrome P450 2C9 (Homo sapiens, UniProt P11712)
Chain of Cytochrome P450 2C9 (P11712 whole entry): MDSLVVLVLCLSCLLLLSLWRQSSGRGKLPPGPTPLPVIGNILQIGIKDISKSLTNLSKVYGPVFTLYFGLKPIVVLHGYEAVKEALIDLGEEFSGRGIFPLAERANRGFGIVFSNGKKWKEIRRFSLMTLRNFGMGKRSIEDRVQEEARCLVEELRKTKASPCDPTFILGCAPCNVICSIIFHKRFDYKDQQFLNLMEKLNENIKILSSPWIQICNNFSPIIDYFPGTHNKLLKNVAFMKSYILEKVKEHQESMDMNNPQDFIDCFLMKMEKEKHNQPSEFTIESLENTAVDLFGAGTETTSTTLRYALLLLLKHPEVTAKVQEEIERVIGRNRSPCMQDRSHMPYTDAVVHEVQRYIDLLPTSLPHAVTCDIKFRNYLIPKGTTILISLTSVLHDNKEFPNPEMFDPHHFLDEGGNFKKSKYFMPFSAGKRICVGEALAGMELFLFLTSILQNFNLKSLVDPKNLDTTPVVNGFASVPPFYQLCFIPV

[5] = target: Cytochrome P450 2D6 (Homo sapiens, UniProt P10635);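 further: CYP2D6 member of a cytochrome P450 panel assay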
Chain of Cytochrome P450 2D6 (P10635 whole entry): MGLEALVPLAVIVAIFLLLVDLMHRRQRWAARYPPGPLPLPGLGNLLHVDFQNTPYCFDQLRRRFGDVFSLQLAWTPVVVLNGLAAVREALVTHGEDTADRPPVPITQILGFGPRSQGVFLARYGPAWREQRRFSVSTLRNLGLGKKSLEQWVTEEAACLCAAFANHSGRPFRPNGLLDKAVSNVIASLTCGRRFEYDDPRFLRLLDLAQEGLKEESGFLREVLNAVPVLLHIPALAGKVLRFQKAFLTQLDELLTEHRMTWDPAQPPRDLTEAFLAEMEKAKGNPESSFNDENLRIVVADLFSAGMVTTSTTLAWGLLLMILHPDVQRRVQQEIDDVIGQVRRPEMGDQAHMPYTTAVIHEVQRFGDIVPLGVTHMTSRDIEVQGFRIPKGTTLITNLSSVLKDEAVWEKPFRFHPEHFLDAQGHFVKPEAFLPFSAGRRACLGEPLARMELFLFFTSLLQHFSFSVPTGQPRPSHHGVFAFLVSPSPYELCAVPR

[6] = target: Cytochrome P450 3A4 (Homo sapiens, UniProt P08684);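 further: CYP3A4 tested as one member of a cytochrome P450 panel screen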
[7] = target: Lysine-specific demethylase 4A (Homo sapiens, UniProt O75164); assay: inhibition of JMJD2A H3K9me3 demethylation – biochemical, DELFIA europium, cherry-picked samples, selectivity assay for GASC-1 inhibitor project, dose response (AID 488840)
[8] = target: Lysine-specific demethylase 4C (Homo sapiens, UniProt Q9H3R0); assay: inhibition of JMJD2C H3K9me3 demethylation – biochemical, DELFIA europium, cherry-picked samples, dose response (AID 488835); format: functional
[9] = target: Dual specificity tyrosine-phosphorylation-regulated kinase 1A (Rattus norvegicus, UniProt Q63470); format: biochemical, Homo sapiens
[10] = target: T1, Sentrin-specific protease 1 (Homo sapiens, UniProt Q9P0U3); assay: SENP1 catalytic domain blockers, concentration series – biochemical, kinetic FRET, dose response (AID 651697); format: functional; details: read-out: IC50_Mean
T1 sequence (Q9P0U3 whole entry): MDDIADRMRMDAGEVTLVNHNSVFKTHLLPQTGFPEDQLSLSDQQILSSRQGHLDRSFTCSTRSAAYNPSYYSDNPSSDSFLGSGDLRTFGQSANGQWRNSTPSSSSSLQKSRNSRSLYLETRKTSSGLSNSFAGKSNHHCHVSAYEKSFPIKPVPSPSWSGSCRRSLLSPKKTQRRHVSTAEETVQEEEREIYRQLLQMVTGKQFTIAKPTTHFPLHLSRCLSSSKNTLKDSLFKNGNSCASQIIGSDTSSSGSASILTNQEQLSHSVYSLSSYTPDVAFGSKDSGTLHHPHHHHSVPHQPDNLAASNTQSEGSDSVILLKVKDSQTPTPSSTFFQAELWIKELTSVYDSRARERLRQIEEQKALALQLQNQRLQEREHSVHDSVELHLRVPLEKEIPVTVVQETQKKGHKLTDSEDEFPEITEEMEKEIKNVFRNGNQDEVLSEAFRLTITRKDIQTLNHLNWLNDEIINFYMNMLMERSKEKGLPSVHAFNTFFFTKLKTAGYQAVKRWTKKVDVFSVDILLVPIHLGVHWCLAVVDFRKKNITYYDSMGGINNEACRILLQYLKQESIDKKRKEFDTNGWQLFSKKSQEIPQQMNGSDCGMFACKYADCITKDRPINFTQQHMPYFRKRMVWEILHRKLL

[11] = target: T1, Sentrin-specific protease 1; assay: Dose response confirmation of small molecule inhibitors of the catalytic domain of the SUMO protease, SENP1 in a FRET assay.; format: functional; details: read-out: IC50_Mean
[12] = target: T2, Rac GTPase-activating protein 1 (Homo sapiens, UniProt Q9H0H5); assay: blockers of MgcRacGAP-driven Rac1 GTP hydrolysis – biochemical, ADP Hunter fluorescence, primary and confirmatory, confirmation (AID 624330); format: functional
T2 sequence (Q9H0H5 whole entry): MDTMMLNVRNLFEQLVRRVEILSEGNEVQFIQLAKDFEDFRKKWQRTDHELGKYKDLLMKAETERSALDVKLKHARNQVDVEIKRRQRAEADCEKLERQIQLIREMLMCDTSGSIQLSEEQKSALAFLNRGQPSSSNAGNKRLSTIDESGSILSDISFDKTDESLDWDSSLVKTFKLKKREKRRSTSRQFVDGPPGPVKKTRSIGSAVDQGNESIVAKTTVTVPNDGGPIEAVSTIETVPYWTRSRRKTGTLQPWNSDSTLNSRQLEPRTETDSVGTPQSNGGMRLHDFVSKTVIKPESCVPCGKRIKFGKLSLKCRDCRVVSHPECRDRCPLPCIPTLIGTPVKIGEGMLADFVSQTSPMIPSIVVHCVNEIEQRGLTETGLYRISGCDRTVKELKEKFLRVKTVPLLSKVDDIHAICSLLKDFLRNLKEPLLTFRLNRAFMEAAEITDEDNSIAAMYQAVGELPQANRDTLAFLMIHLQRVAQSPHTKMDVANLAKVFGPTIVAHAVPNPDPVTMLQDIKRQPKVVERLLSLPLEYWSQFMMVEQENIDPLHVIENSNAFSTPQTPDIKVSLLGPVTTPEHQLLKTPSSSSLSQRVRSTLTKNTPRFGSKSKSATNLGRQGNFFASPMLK

[13] = target: T3, Hexokinase-1 (Homo sapiens, UniProt P19367); assay: hexokinase 1 activity inhibitors, potency – biochemical, set 2, resazurin fluorescence coupled readout, selectivity assay for HKDC1 inhibitor project, SAR follow-up (AID 588356); format: functional
T3 sequence (P19367 whole entry): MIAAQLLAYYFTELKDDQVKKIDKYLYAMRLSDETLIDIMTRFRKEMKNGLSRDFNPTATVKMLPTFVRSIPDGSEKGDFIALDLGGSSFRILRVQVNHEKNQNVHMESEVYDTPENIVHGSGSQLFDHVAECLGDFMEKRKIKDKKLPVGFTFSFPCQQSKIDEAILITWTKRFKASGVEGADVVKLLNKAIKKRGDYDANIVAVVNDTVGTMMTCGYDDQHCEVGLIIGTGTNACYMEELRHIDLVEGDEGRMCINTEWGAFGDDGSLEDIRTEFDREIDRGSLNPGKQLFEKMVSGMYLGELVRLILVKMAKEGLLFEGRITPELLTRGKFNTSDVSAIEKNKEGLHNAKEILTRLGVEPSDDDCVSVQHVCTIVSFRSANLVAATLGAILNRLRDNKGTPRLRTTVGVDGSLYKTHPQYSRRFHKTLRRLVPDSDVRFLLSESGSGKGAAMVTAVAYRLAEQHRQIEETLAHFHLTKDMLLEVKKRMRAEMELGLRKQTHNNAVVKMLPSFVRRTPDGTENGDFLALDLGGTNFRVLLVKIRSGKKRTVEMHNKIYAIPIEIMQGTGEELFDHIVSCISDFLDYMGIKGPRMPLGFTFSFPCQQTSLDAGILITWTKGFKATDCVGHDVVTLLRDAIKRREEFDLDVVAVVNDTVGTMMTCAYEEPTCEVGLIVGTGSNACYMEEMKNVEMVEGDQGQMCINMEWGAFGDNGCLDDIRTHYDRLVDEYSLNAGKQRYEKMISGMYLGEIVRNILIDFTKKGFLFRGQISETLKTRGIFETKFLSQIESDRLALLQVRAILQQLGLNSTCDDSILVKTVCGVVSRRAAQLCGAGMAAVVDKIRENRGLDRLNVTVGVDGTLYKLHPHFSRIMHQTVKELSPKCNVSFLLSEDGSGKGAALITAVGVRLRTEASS

[14] = target: T4, Hexokinase HKDC1 (Homo sapiens, UniProt Q2TB90); assay: analog inhibition of human HKDC1 activity – biochemical, set 2, SAR follow-up (AID 588355); format: functional
T4 sequence (Q2TB90 whole entry): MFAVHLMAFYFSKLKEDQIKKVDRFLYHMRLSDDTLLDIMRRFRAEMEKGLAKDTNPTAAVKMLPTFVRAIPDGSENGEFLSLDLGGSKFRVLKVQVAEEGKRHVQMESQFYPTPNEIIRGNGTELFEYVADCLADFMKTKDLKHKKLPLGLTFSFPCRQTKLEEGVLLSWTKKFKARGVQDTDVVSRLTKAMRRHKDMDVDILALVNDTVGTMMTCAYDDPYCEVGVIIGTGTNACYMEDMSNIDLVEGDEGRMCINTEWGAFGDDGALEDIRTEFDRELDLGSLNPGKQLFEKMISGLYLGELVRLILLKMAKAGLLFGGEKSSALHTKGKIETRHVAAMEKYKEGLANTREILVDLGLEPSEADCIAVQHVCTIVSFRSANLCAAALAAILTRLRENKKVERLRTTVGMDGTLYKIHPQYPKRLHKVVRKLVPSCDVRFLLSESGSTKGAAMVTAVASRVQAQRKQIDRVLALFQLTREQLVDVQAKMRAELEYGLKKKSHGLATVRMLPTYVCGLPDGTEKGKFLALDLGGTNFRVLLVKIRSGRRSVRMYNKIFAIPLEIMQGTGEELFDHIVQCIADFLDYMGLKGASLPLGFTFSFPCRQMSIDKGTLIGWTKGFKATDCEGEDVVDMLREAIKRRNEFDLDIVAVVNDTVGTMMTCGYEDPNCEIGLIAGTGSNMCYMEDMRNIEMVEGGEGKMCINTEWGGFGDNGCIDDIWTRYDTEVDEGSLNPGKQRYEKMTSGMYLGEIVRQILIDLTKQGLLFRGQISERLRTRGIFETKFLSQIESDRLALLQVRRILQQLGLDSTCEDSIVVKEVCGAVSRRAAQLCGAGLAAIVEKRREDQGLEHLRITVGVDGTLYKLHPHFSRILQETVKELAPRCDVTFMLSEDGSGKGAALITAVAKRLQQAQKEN

[15] = viability of PTEN-deleted HCT116 cells – cell-based, HCT116 PTEN knockout, dose response (AID 1047); format: functional;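 further: HCT116 colon tumor cells with PTEN knocked out; cells exposed to compound for 60 hours before readout; potency for loss of cell viability measured by luminescence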
[16] = viability of HCT116 lacking mutant beta-catenin – cell-based, human colon tumor, dose response (AID 1045); format: functional;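 further: HCT116 colon tumor cells with beta catenin knocked out; cells exposed to compound for 60 hours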
[17] = Luminescence Cell-Based Dose Retest to Confirm Inhibitors of Cancer Stem Cells. [Related pubchem assays (depositor defined):AID2717, AID2721]; format: functional; details: Homo sapiens
[18] = viability loss of HMLE_sh_eGFP cells – cell-based, luminescence, counter-screen for HMLE_sh_ECad selective toxicity project, dose response (AID 463074); format: functional, Homo sapiens;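 further: HMLE human mammary epithelial cells expressing control shRNA against eGFP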

SMILES: c1ccc(CSc2ncnc3c2sc2nc(N4CCOCC4)c4c(c23)CCCC4)cc1
- EC50 [1]: 18.6 µM (not active)
- EC50 [2]: > 79.4 µM (not active)
- EC50 [3]: > 79.4 µM (not active)
- AC50 [4]: 1.12 µM (inconclusive)
- AC50 [5]: inconclusive
- AC50 [6]: inconclusive

SMILES: C[C@@H]1O[C@@H](OC[C@H]2O[C@@H](Oc3cc(O)c4c(=O)cc(-c5ccc(O)c(O)c5)oc4c3)[C@H](O)[C@@H](O)[C@@H]2O)[C@H](O)[C@H](O)[C@H]1O
- AC50 [7]: 2.86 µM (active)
- AC50 [8]: 2.82 µM (active)
- AC50 [9]: 15.8 µM (active)
- IC50 [10]: 14.7 µM (active)
- IC50 [11]: 6.84 µM (active)
- IC50 [12]: 42.7 µM (active)

SMILES: CCc1ccc(NC2c3ccccc3C(=O)N2c2ccccc2C)cc1 (stereo not drawn)
- IC50 [13]: > 80 µM (inactive)
- IC50 [14]: > 80 µM (inactive)

SMILES: Cc1nn(Cc2ccc(Cl)cc2)c(Cl)c1/C=N/NC(=O)CNc1ccccc1F
- EC50 [15]: 15.8 µM (active)
- EC50 [16]: 18 µM (active)
- AC50 [17]: 16.2 µM (active)
- AC50 [18]: 24.9 µM (active)
